US20220357332A1, “TRIPHENYLENE DERIVATIVES FOR USE IN IMAGING BIOLOGICAL TISSUE OR FLUID” (CHROMATWIST LIMITED, priority 2019, published 2022)

Tests used:
[1] = Luminescence data for pairs of compounds absorbing at the same wavelength and emitting at different wavelengths; type: physicochemical
Description: Referring now to Tables 2 to 4, there is provided luminescence data for pairs of compounds which are capable of absorbing at the same wavelength and emitting at different wavelengths.

[2] = Luminescent data (absorption, emission, quantum yield, brightness) in solvents; type: physicochemical
Description: Referring now to Table 1, there is shown luminescent data for Compounds 1 to 6.

[3] = Solubility (statements in words); type: physicochemical; conditions: DMSO as a solvent, diluted in medium to 1 μg/ml
[4] = system: human liver; conditions: 45 min, 1 μg/ml
Procedure: All fluorophores were testing using donated human tissue which had been previously rejected for transplantation. All reagents were diluted in pre-warmed Dulbecos Modified Eagles Medium (DMEM) or CO2-independent media (both Invitrogen) to working concentrations and then perfused into pieces of liver for 45 min. Membrane and nuclear dyes were used simultaneously to visualise other cellular structures within the liver. Tissues were then imaged using multiphoton microscopy (825 nm). All fluorophores were used at 1 μg/ml (giving 0.1% of vehicle, being DMSO or THF). Testing of TpOx-2-Nap (green fluorophore) was done using DMSO as a solvent. […] was used for comparison, having been perfused through a separate piece of tissue from the same donor.

[5] = Acetonitrile (ϵr 37.5, viscosity 0.38 cP)
[6] = Ethyl acetate (ϵr 6.0, viscosity 0.45 cP)
[7] = Octan-1-ol (ϵr 10.3, viscosity 7.36 cP)

CCCCCOc1cc2c3cc(OCCCCC)c(OCCCCC)cc3c3c(cc(OCCCCC)c4oc(-c5ccc6ccccc6c5)nc43)c2cc1OCCCCC [Compound 3, 8-(naphthalen-2-yl)-2,3,6,11,12-pentakis(pentyloxy)triphenyleno[1,2-d]oxazole]
QY [1]: 0.55 | pSS (cm^−1) [1]: 16500 cm^−1 | pSS (nm) [1]: 222 nm | Absorption % Abs at 355 nm ([1]; 355 nm): 17% | Absorption % Abs at 405 nm ([1]; 405 nm): 7% | ε × 10^3 (M^−1 cm^−1) at 355 nm ([1]; at 355 nm, solvent not given): 29 × 10^3 M^−1 cm^−1 | ε × 10^3 (M^−1 cm^−1) at 405 nm ([1]; at 405 nm, solvent not given): 13 × 10^3 M^−1 cm^−1 | ε × 10^3 (M^−1 cm^−1) at λMax ([1]; at λMax, solvent not given): 164 × 10^3 M^−1 cm^−1 | Absorption λMax ([1]; solvent not given): 272 nm | Emission λMax ([1]; solvent not given): 494 nm | Absorption λmax [2, 5]: 273 nm | Brightness [2, 5]: 44 ± 4 M⁻¹ cm⁻¹ | Emission λmax [2, 5]: 524 nm | pSS [2, 5]: 17600 cm^−1 | Φ [2, 5]: 0.51 ± 0.05 | Absorption λmax [2, 6]: 272 nm | Brightness [2, 6]: 92 ± 9 M⁻¹ cm⁻¹ | Emission λmax [2, 6]: 494 nm | pSS [2, 6]: 16500 cm^−1 | Φ [2, 6]: 0.55 ± 0.05 | Absorption λmax [2, 7]: 272 nm | Brightness [2, 7]: 91 ± 9 M⁻¹ cm⁻¹ | Emission λmax [2, 7]: 497 nm | pSS [2, 7]: 16600 cm^−1 | Φ [2, 7]: 0.71 ± 0.07 | Solubility with DMSO as solvent [3]: limited solubility | Uptake by hepatocytes [4]: Diffuse green fluorescence (12) was observed within the cytoplasm of the hepatocytes
